{"source": "PubChem BioAssay AID248", "about": "(DTP/NCI, 2004)", "system": "L1210 leukemia ip in BDF1 mice, survival T/C", "test": "NCI In Vivo Anticancer Drug Screen. Data for tumor model L1210 Leukemia (intraperitoneal) in B6D2F1 (BDF1) mice", "details": "endpoint: mean survival time, higher = longer survival", "procedure,_shortened": "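Transplantable tumor model; survival measured in treated vs vehicle control mice. Value = treated/control.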", "key": {"[1]": {"details": "dose: 100.0 mg/kg/injection, schedule: Q01DX009 (ip), vehicle: saline with Tween-80"}, "[2]": {"details": "dose: 100.0 mg/kg/injection, schedule: Q04DX003 (ip), vehicle: saline with Tween-80"}, "[3]": {"details": "dose: 200.0 mg/kg/injection, schedule: Q01DX009 (ip), vehicle: saline with Tween-80"}, "[4]": {"details": "dose: 200.0 mg/kg/injection, schedule: Q04DX003 (ip), vehicle: saline with Tween-80"}, "[5]": {"details": "dose: 400.0 mg/kg/injection, schedule: Q04DX003 (ip), vehicle: saline with Tween-80"}, "[6]": {"details": "dose: 100.0 mg/kg/injection, schedule: Q04DX003 (ip), vehicle: Klucel (hydroxypropylcellulose) (HPC)"}, "[7]": {"details": "dose: 200.0 mg/kg/injection, schedule: Q04DX003 (ip), vehicle: Klucel (hydroxypropylcellulose) (HPC)"}, "[8]": {"details": "dose: 400.0 mg/kg/injection, schedule: Q04DX003 (ip), vehicle: Klucel (hydroxypropylcellulose) (HPC)"}, "[9]": {"details": "dose: 12.5 mg/kg/injection, schedule: Q01DX009 (ip), vehicle: saline"}, "[10]": {"details": "dose: 25.0 mg/kg/injection, schedule: Q04DX003 (ip), vehicle: saline"}, "[11]": {"details": "dose: 50.0 mg/kg/injection, schedule: Q04DX003 (ip), vehicle: saline"}}, "note": "Inconclusive results and toxic doses are left out.", "data": [{"smiles": "CN(C)C(=O)c1cccc(NC(=O)Oc2ccccc2)c1", "values": [{"measurement": "T/C", "setting": "[1]", "result": "109 % of control"}, {"measurement": "T/C", "setting": "[2]", "result": "102 % of control"}, {"measurement": "T/C", "setting": "[3]", "result": "101 % of control"}, {"measurement": "T/C", "setting": "[4]", "result": "100 % of control"}, {"measurement": "T/C", "setting": "dose: 400.0 mg/kg/injection, schedule: Q01DX009 (ip), vehicle: saline with Tween-80", "result": "101 % of control"}, {"measurement": "T/C", "setting": "[5]", "result": "102 % of control"}]}, {"smiles": "CCCCCCCCP(=S)(CCCCCC)CCCCCC", "values": [{"measurement": "T/C", "setting": "dose: 100.0 mg/kg/injection, schedule: Q01DX001 (ip), vehicle: saline with Tween-80", "result": "104 % of control"}, {"measurement": "T/C", "setting": "dose: 200.0 mg/kg/injection, schedule: Q01DX001 (ip), vehicle: saline with Tween-80", "result": "90 % of control"}, {"measurement": "T/C", "setting": "dose: 400.0 mg/kg/injection, schedule: Q01DX001 (ip), vehicle: saline with Tween-80", "result": "87 % of control"}]}, {"smiles": "O=C(O)C1=CC2(c3ccccc3)C(=O)C1(c1ccccc1)C1=C2c2cccc3cccc1c23", "note": "(stereo not given)", "values": [{"measurement": "T/C", "setting": "dose: 50.0 mg/kg/injection, schedule: Q01DX009 (ip), vehicle: saline with Tween-80", "result": "93 % of control"}, {"measurement": "T/C", "setting": "[1]", "result": "93 % of control"}, {"measurement": "T/C", "setting": "[3]", "result": "93 % of control"}]}, {"smiles": "CN(C)CCN(C)C(=O)C(c1ccccc1)C1CCCCC1", "note": "(stereo not given)", "values": [{"measurement": "T/C", "setting": "dose: 75.0 mg/kg/injection, schedule: Q01DX001 (ip), vehicle: saline", "result": "103 % of control"}, {"measurement": "T/C", "setting": "dose: 150.0 mg/kg/injection, schedule: Q01DX001 (ip), vehicle: saline", "result": "97 % of control"}]}, {"smiles": "CC(C(=O)c1cccs1)C(O)(C(F)(F)F)C(F)(F)F", "note": "(stereo not given)", "values": [{"measurement": "T/C", "setting": "[6]", "result": "95 % of control"}, {"measurement": "T/C", "setting": "[7]", "result": "95 % of control"}, {"measurement": "T/C", "setting": "[8]", "result": "103 % of control"}]}, {"smiles": "CCOC(=O)C1CN(S(=O)(=O)c2ccc(C)cc2)c2ccccc2C(=O)C1/C(=C/C(=O)OC)C(=O)OC", "note": "(stereo not given)", "values": [{"measurement": "T/C", "setting": "[6]", "result": "96 % of control"}, {"measurement": "T/C", "setting": "[7]", "result": "94 % of control"}, {"measurement": "T/C", "setting": "[8]", "result": "86 % of control"}]}, {"smiles": "CC1(C)N=C(N)N=C(N)N1c1ccc(CNC(=O)Nc2cccc(S(=O)(=O)F)c2)cc1", "values": [{"measurement": "T/C", "setting": "dose: 6.25 mg/kg/injection, schedule: Q01DX009 (ip), vehicle: saline", "result": "116 % of control"}, {"measurement": "T/C", "setting": "[9]", "result": "119 % of control"}, {"measurement": "T/C", "setting": "dose: 50.0 mg/kg/injection, schedule: Q01DX009 (ip), vehicle: saline", "result": "154 % of control"}, {"measurement": "T/C", "setting": "dose: 88.0 mg/kg/injection, schedule: Q04DX003 (ip), vehicle: saline", "result": "113 % of control"}]}, {"smiles": "O=S(=O)(CS(=O)(=O)Nc1ccccc1)Nc1ccccc1", "values": [{"measurement": "T/C", "setting": "dose: 25.0 mg/kg/injection, schedule: Q04DX003 (ip), vehicle: saline with Tween-80", "result": "113 % of control"}, {"measurement": "T/C", "setting": "dose: 50.0 mg/kg/injection, schedule: Q04DX003 (ip), vehicle: saline with Tween-80", "result": "116 % of control"}, {"measurement": "T/C", "setting": "dose: 100.0 mg/kg/injection, schedule: Q01DX001 (ip), vehicle: saline", "result": "94 % of control"}, {"measurement": "T/C", "setting": "[2]", "result": "111 % of control"}, {"measurement": "T/C", "setting": "dose: 200.0 mg/kg/injection, schedule: Q01DX001 (ip), vehicle: saline", "result": "94 % of control"}, {"measurement": "T/C", "setting": "dose: 400.0 mg/kg/injection, schedule: Q01DX001 (ip), vehicle: saline", "result": "94 % of control"}]}, {"smiles": "NC1=NCCCN1", "values": [{"measurement": "T/C", "setting": "[2]", "result": "101 % of control"}]}, {"smiles": "Cc1ccc(NC2=C(Cl)C(=O)c3ccccc3C2=O)cc1", "values": [{"measurement": "T/C", "setting": "dose: 50.0 mg/kg/injection, schedule: Q01DX001 (ip), vehicle: carboxymethylcellulose (CMC)", "result": "101 % of control"}, {"measurement": "T/C", "setting": "dose: 100.0 mg/kg/injection, schedule: Q01DX001 (ip), vehicle: carboxymethylcellulose (CMC)", "result": "95 % of control"}, {"measurement": "T/C", "setting": "dose: 200.0 mg/kg/injection, schedule: Q01DX001 (ip), vehicle: carboxymethylcellulose (CMC)", "result": "93 % of control"}, {"measurement": "T/C", "setting": "dose: 400.0 mg/kg/injection, schedule: Q01DX001 (ip), vehicle: carboxymethylcellulose (CMC)", "result": "89 % of control"}]}, {"smiles": "CCCCNCCCC", "values": [{"measurement": "T/C", "setting": "[10]", "result": "102 % of control"}, {"measurement": "T/C", "setting": "[11]", "result": "96 % of control"}, {"measurement": "T/C", "setting": "dose: 100.0 mg/kg/injection, schedule: Q04DX003 (ip), vehicle: saline", "result": "94 % of control"}]}, {"smiles": "CC1OC(=O)C(C2OC2C)=CC1O", "note": "(stereo not given)", "values": [{"measurement": "T/C", "setting": "[9]", "result": "97 % of control"}, {"measurement": "T/C", "setting": "dose: 12.5 mg/kg/injection, schedule: Q04DX003 (ip), vehicle: saline", "result": "101 % of control"}, {"measurement": "T/C", "setting": "dose: 25.0 mg/kg/injection, schedule: Q01DX009 (ip), vehicle: saline", "result": "108 % of control"}, {"measurement": "T/C", "setting": "[10]", "result": "108 % of control"}, {"measurement": "T/C", "setting": "dose: 50.0 mg/kg/injection, schedule: Q01DX001 (ip), vehicle: saline", "result": "114 % of control"}, {"measurement": "T/C", "setting": "[11]", "result": "92 % of control"}]}, {"smiles": "O=S(=O)(O)CNc1ccccc1", "values": [{"measurement": "T/C", "setting": "dose: 100.0 mg/kg/injection, schedule: Q01DX009 (ip), vehicle: saline", "result": "93 % of control"}, {"measurement": "T/C", "setting": "dose: 200.0 mg/kg/injection, schedule: Q01DX009 (ip), vehicle: saline", "result": "93 % of control"}, {"measurement": "T/C", "setting": "dose: 400.0 mg/kg/injection, schedule: Q01DX009 (ip), vehicle: saline", "result": "95 % of control"}]}, {"smiles": "CC(C)NC(=O)C1C2C=CC(CC2)C1C(=O)NC(C)C", "note": "(stereo not given)", "values": [{"measurement": "T/C", "setting": "[2]", "result": "100 % of control"}, {"measurement": "T/C", "setting": "[4]", "result": "92 % of control"}, {"measurement": "T/C", "setting": "[5]", "result": "104 % of control"}]}]}
